In this experiment the target is T1, human GLUT1 (Homo sapiens, UniProt P11166).
T1 construct: expressed in transfected cells
T1 sequence (P11166 1-492): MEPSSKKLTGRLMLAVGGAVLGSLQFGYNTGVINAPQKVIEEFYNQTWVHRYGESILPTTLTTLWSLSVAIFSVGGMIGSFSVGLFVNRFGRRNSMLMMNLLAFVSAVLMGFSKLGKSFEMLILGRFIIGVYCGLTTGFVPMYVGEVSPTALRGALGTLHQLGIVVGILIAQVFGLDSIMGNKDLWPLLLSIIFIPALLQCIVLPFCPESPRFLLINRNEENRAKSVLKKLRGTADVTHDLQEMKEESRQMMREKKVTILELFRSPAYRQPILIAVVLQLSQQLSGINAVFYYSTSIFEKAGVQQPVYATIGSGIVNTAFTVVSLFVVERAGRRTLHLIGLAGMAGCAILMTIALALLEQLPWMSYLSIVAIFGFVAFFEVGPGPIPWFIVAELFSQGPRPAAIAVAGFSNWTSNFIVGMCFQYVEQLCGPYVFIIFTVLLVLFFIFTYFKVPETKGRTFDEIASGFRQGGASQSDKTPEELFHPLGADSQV
The experiment can be described thus: [3H]-deoxy-D-glucose uptake assay, GLUT1. It is filed as cell-based. The following applies: [3H]-deoxy-D-glucose uptake in HEK293 cells stably expressing human GLUT1. Here is the method: HEK293 cells were engineered to stably express either human GLUT1, GLUT2, GLUt3 or GLUT4 by transfection with the pReceiver-Lv105 plasmid, containing either hGLUT1, hGLUT2, hGLUT3, or hGLUT4 gene constructs with lipofectamine 2000, hGLUT1- hGLUT2- hGLUT3- or hGLUT4-overexpressing polyclonal populations were isolated under purinomycin selective pressure (1 μg/ml) and maintained in Dulbecco's modified Eagle's medium supplemented with 1 μg/ml purinomycin+10% foetal bovine serum (FBS).
60,000 cells per well were seeded overnight into poly-D-lysine coasted 96-well plates. […] 90 μl of test compounds were added in glucose-free uptake buffer and cells were incubated at 37° C. for 30 min.
Cells were then washed twice with ice-cold PBS and 100 μl of Microscint-20 was added per well. Glucose uptake was quantified with a scintillation counter. The half maximal inhibitory concentration (IC50) (a measure of the effectiveness of the test compound in inhibiting glucose uptake) was determined.
Take `CC(C)C(=O)N1CCN(Cc2c(-c3cccc([N+](=O)[O-])c3)nc3ccc(-c4ccccc4)cn23)CC1` [Compound 55]: the “GLUT1 pIC50” value is on record as “++ (pIC50 5.00-5.99)”.

For the molecule `O=C(C1CC1)N1CCN(Cc2c(-c3cccc([N+](=O)[O-])c3)nc3ccc(-c4ccccc4)cn23)CC1` [Compound 56], the “GLUT1 pIC50” value is “++ (pIC50 5.00-5.99)”.

Take `COCC(=O)N1CCN(Cc2c(-c3cccc(OC)c3)nc3ccc(-c4ccccc4)cn23)CC1` [Compound 57]: the “GLUT1 pIC50” value was “++ (pIC50 5.00-5.99)”.

For the molecule `CC(C)(C)CC(=O)N1CCN(Cc2c(-c3cccc([N+](=O)[O-])c3)nc3ccc(-c4ccccc4)cn23)CC1` [Compound 58], the “GLUT1 pIC50” value is listed as “+ (pIC50 4.00-4.99)”.

For the molecule `CC(=O)N1CCN(Cc2c(-c3cccc([N+](=O)[O-])c3)nc3ccc(-c4ccccc4)cn23)CC1` [Compound 59], the “GLUT1 pIC50” value was “++ (pIC50 5.00-5.99)”.

With `CC(C)CC(=O)N1CCN(Cc2c(-c3cccc([N+](=O)[O-])c3)nc3ccc(-c4ccccc4)cn23)CC1` [Compound 60], the “GLUT1 pIC50” value is given as “+ (pIC50 4.00-4.99)”.

`CC(=O)N1CCN(Cc2c(-c3ccc(Cl)cc3)nc3ccc(-c4ccccc4)cn23)CC1` [Compound 61]: the “GLUT1 pIC50” value was “+++ (pIC50 ≧ 6.00)”.

For `CCC(=O)N1CCN(Cc2c(-c3ccc(Cl)cc3)nc3ccc(-c4ccccc4)cn23)CC1` [Compound 62], the “GLUT1 pIC50” value is reported as “+++ (pIC50 ≧ 6.00)”.

On to `O=C(Cc1ccc(F)cc1)N1CCN(Cc2c(-c3ccc(Cl)cc3)nc3ccc(-c4ccccc4)cn23)CC1` [Compound 63], for which the “GLUT1 pIC50” value is on record as “++ (pIC50 5.00-5.99)”.

Regarding `O=C(c1ccccc1Cl)N1CCN(Cc2c(-c3ccc(Cl)cc3)nc3ccc(-c4ccccc4)cn23)CC1` [Compound 64], the “GLUT1 pIC50” value is “+ (pIC50 4.00-4.99)”.

Take `COc1cccc(-c2nc3ccc(-c4ccccc4)cn3c2CN2CCN(C(=O)CC(C)(C)C)CC2)c1` [Compound 65]: the “GLUT1 pIC50” value was “++ (pIC50 5.00-5.99)”.

With `O=C(C1CCCC1)N1CCN(Cc2c(-c3cccc([N+](=O)[O-])c3)nc3ccc(-c4ccccc4)cn23)CC1` [Compound 66], the “GLUT1 pIC50” value is “++ (pIC50 5.00-5.99)”.

As to `Cc1ccc(-c2nc3ccc(-c4ccccc4)cn3c2CN2CCN(C(=O)c3cccs3)CC2)cc1` [Compound 67], the “GLUT1 pIC50” value is on record as “+++ (pIC50 ≧ 6.00)”.

Turning to `COc1ccc(NC(=O)N2CCN(Cc3c(-c4ccc(Cl)cc4)nc4ccc(-c5ccccc5)cn34)CC2)cc1` [Compound 68], the “GLUT1 pIC50” value was “+ (pIC50 4.00-4.99)”.

Turning to `Cc1ccc(C(=O)N2CCN(Cc3c(-c4ccc(Cl)cc4)nc4ccc(-c5ccccc5)cn34)CC2)cc1` [Compound 69], the “GLUT1 pIC50” value is given as “+++ (pIC50 ≧ 6.00)”.

For `COc1ccc(C(=O)N2CCN(Cc3c(-c4ccc(F)cc4)nc4ccc(-c5ccccc5)cn34)CC2)cc1` [Compound 70], the “GLUT1 pIC50” value is “+++ (pIC50 ≧ 6.00)”.

On to `COc1cccc(-c2nc3ccc(-c4ccccc4)cn3c2CN2CCN(C(=O)c3ccccc3F)CC2)c1` [Compound 71], for which the “GLUT1 pIC50” value is reported as “+++ (pIC50 ≧ 6.00)”.

Turning to `c1ccc(-c2ccc3nc(-c4ccncc4)c(CN4CCOCC4)n3c2)cc1` [Compound 72], the “GLUT1 pIC50” value is recorded as “+− (pIC50 < 4.00)”.

On to `COCc1c(-c2ccc(Cl)cc2)nc2ccc(-c3ccccc3)cn12` [Compound 73], for which the “GLUT1 pIC50” value was “+ (pIC50 4.00-4.99)”.

Turning to `Clc1ccc(-c2nc3cnc(-c4ccccc4)cn3c2CN2CCOCC2)cc1` [Compound 75], the “GLUT1 pIC50” value was “+++ (pIC50 ≧ 6.00)”.

As to `Fc1ccc(-c2nc3ccc(-c4ccccc4)cn3c2CN2CCOCC2)cc1` [Compound 76], the “GLUT1 pIC50” value was “+ (pIC50 4.00-4.99)”.

Consider `Clc1ccc(-c2nc3ncc(-c4ccccc4)cn3c2CN2CCOCC2)cc1` [Compound 77], for which the “GLUT1 pIC50” value is on record as “+− (pIC50 < 4.00)”.

With `CCNC(=O)c1nc2ccc(-c3ccccc3)cn2c1CN1CCOCC1` [Compound 78], the “GLUT1 pIC50” value is recorded as “+− (pIC50 < 4.00)”.

Take `Fc1cccc(-c2ccc3nc(-c4ccc(Cl)cc4)c(CN4CCOCC4)n3c2)c1` [Compound 81]: the “GLUT1 pIC50” value is on record as “+ (pIC50 4.00-4.99)”.

Take `Clc1ccc(-c2nc3ccc(-c4ccncc4)cn3c2CN2CCOCC2)cc1` [Compound 82]: the “GLUT1 pIC50” value was “++ (pIC50 5.00-5.99)”.

`Clc1ccc(-c2nc3ccc(-c4cccnc4)cn3c2CN2CCOCC2)cc1` [Compound 83]: the “GLUT1 pIC50” value was “++ (pIC50 5.00-5.99)”.

As to `COc1cccc(-c2ccc3nc(-c4ccc(Cl)cc4)c(CN4CCOCC4)n3c2)c1` [Compound 84], the “GLUT1 pIC50” value was “++ (pIC50 5.00-5.99)”.

With `COc1ccccc1-c1ccc2nc(-c3ccc(Cl)cc3)c(CN3CCOCC3)n2c1` [Compound 85], the “GLUT1 pIC50” value is reported as “++ (pIC50 5.00-5.99)”.

As to `COc1ccc(-c2ccc3nc(-c4ccc(Cl)cc4)c(CN4CCOCC4)n3c2)cc1` [Compound 86], the “GLUT1 pIC50” value is reported as “+ (pIC50 4.00-4.99)”.

Take `Clc1ccc(-c2nc3ccc(C4CC4)cn3c2CN2CCOCC2)cc1` [Compound 87]: the “GLUT1 pIC50” value is on record as “++ (pIC50 5.00-5.99)”.

Take `CC(C)(C)OC(=O)N1CCN(Cc2c(-c3ccc(Cl)cc3)nc3ccc(-c4ccccc4)cn23)CC1` [Compound 88]: the “GLUT1 pIC50” value was “+− (pIC50 < 4.00)”.

As to `Clc1ccc(-c2nc3ccc(-c4ccccc4)cn3c2CN2CCNCC2)cc1` [Compound 89], the “GLUT1 pIC50” value is given as “+ (pIC50 4.00-4.99)”.

In the case of `O=S(=O)(c1cccc(F)c1)N1CCN(Cc2c(-c3ccc(Cl)cc3)nc3ccc(-c4ccccc4)cn23)CC1` [Compound 90], the “GLUT1 pIC50” value was “+− (pIC50 < 4.00)”.

As to `N#Cc1cccc(-c2ccc3nc(-c4ccc(Cl)cc4)c(CN4CCOCC4)n3c2)c1` [Compound 92], the “GLUT1 pIC50” value is “+− (pIC50 < 4.00)”.

With `NC(=O)c1ccccc1-c1ccc2nc(-c3ccc(Cl)cc3)c(CN3CCOCC3)n2c1` [Compound 94], the “GLUT1 pIC50” value is reported as “+ (pIC50 4.00-4.99)”.

Regarding `NC(=O)c1ccc(-c2ccc3nc(-c4ccc(Cl)cc4)c(CN4CCOCC4)n3c2)cc1` [Compound 95], the “GLUT1 pIC50” value is recorded as “+ (pIC50 4.00-4.99)”.

Take `CN(C)Cc1c(-c2ccc(Cl)cc2)nc2ccc(-c3ccccc3)cn12` [Compound 97]: the “GLUT1 pIC50” value was “+ (pIC50 4.00-4.99)”.

On to `Clc1ccc(-c2nc3ccc(-c4ccccc4)cn3c2CN2CCCCC2)cc1` [Compound 98], for which the “GLUT1 pIC50” value is reported as “+ (pIC50 4.00-4.99)”.

Regarding `N#Cc1cccc(-c2nc3ccc(-c4ccccc4)cn3c2CN2CCOCC2)c1` [Compound 100], the “GLUT1 pIC50” value is given as “+ (pIC50 4.00-4.99)”.

On to `COc1ccc(-c2nc3ccc(-c4ccccc4)cn3c2CN2CCOCC2)cc1` [Compound 101], for which the “GLUT1 pIC50” value is “++ (pIC50 5.00-5.99)”.

On to `COc1cccc(-c2nc3ccc(-c4ccccc4)cn3c2CN2CCOCC2)c1` [Compound 102], for which the “GLUT1 pIC50” value is given as “++ (pIC50 5.00-5.99)”.

For the molecule `c1ccc(-c2ccc3nc(-c4ccccc4)c(CN4CCOCC4)n3c2)cc1` [Compound 103], the “GLUT1 pIC50” value was “+ (pIC50 4.00-4.99)”.

For the molecule `COc1ccccc1-c1nc2ccc(-c3ccccc3)cn2c1CN1CCOCC1` [Compound 104], the “GLUT1 pIC50” value is recorded as “+ (pIC50 4.00-4.99)”.

Take `Clc1ccccc1-c1nc2ccc(-c3ccccc3)cn2c1CN1CCOCC1` [Compound 105]: the “GLUT1 pIC50” value was “++ (pIC50 5.00-5.99)”.

Consider `N#Cc1ccc(-c2nc3ccc(-c4ccccc4)cn3c2CN2CCOCC2)cc1` [Compound 106], for which the “GLUT1 pIC50” value is “+− (pIC50 < 4.00)”.

For `Clc1cccc(-c2nc3ccc(-c4ccccc4)cn3c2CN2CCOCC2)c1` [Compound 107], the “GLUT1 pIC50” value is on record as “++ (pIC50 5.00-5.99)”.

Turning to `NC(=O)c1ccc(-c2nc3ccc(-c4ccccc4)cn3c2CN2CCOCC2)cc1` [Compound 109], the “GLUT1 pIC50” value was “+− (pIC50 < 4.00)”.

For the molecule `Clc1ccc(-c2nc3ccc(-c4cncnc4)cn3c2CN2CCOCC2)cc1` [Compound 110], the “GLUT1 pIC50” value is reported as “+ (pIC50 4.00-4.99)”.

With `FC(F)(F)c1ccc(-c2nc3ccc(-c4ccccc4)cn3c2CN2CCOCC2)cc1` [Compound 112], the “GLUT1 pIC50” value is “++ (pIC50 5.00-5.99)”.

`Cc1ccccc1-c1ccc2nc(-c3ccc(Cl)cc3)c(CN3CCOCC3)n2c1` [Compound 115]: the “GLUT1 pIC50” value is on record as “+++ (pIC50 ≧ 6.00)”.

Consider `CCN(CC)C(=O)c1ccc2nc(-c3ccc(Cl)cc3)c(CN3CCOCC3)n2c1` [Compound 117], for which the “GLUT1 pIC50” value was “+ (pIC50 4.00-4.99)”.

In the case of `CCNC(=O)c1ccc2nc(-c3ccc(Cl)cc3)c(CN3CCOCC3)n2c1` [Compound 118], the “GLUT1 pIC50” value was “+ (pIC50 4.00-4.99)”.

For `Clc1ccc(-c2nc3ccc(-c4cccs4)cn3c2CN2CCOCC2)cc1` [Compound 119], the “GLUT1 pIC50” value was “++ (pIC50 5.00-5.99)”.

`Clc1ccc(-c2nc3ccc(-c4ccccn4)cn3c2CN2CCOCC2)cc1` [Compound 120]: the “GLUT1 pIC50” value is listed as “++ (pIC50 5.00-5.99)”.

For the molecule `CCNC(=O)c1cccc2nc(-c3ccc(Cl)cc3)c(CN3CCOCC3)n12` [Compound 121], the “GLUT1 pIC50” value is “+− (pIC50 < 4.00)”.

Source of the values: patent publication US20160120863A1, “SLC2A TRANSPORTER INHIBITORS” (IOMET PHARMA LTD., priority 2013, published 2016).
